Experimental data from patent publication US20130303376A1, “METHODS OF IMPROVING PLANT GROWTH” (Bayer CropScience AG, priority 2007, published 2013).
Where “and” joins values, the source holds several entries; their conditions need not be identical. Equal values may be shown once.

Assays:
Format in all cases: in vivo
[1] = test system: Solanum lycopersicum ‘Rentita’; assay: Root growth test of tomatoes under oxygen deficiency conditions in the nutrient solution; conditions: 1.0 mg a.i./plant; floating box, nutrient solution not aerated (oxygen deficiency stress); average maximum root length after 12 d
Procedure: To prepare a suitable solution of the preparation, I part by weight of active substance is mixed with water to give the desired concentration.
(§1) Tomato seeds (Solanum lycopersicum ‘Rentita’) are grown in rock wool. After germination, the rock wool blocks are transferred into a floating box provided with the solution of the preparation and grown on under suitable climatic conditions.
(§2) The nutrient solution of the floating box was not aerated (oxygen deficiency stress).
After the desired period of time, the maximum length of the root per tomato plant is measured, and the average root length per floating box and treatment is calculated.

[2] = test system: Solanum lycopersicum ‘Rentita’; assay: Shoot length test on tomatoes under oxygen deficiency conditions in the nutrient solution; conditions: 1.0 mg a.i./plant; floating box, nutrient solution not aerated (oxygen deficiency stress); average maximum shoot length after 19 d
Procedure: To prepare a suitable solution of the preparation, 1 part by weight of active substance is mixed with water to give the desired concentration.
as §1, §2
After the desired period of time, the maximum shoot length per tomato plant is measured, and the average shoot length per floating box and treatment is calculated.

Botrytis cinerea = assay: Drench application for controlling Botrytis cinerea (grey mould) on tomatoes; set-up: Disease level, replicates 1-9 / Disease level Ø / Disease level and shed leaves: scale not given here; conditions: tomato; for Disease level Ø / Shed leaves Ø / Disease level, replicates 1-9 / Shed leaves, replicates 1-9 / Disease level and shed leaves: 10 d post-inoculation, drench, all actives 5 d before inoculation; for Disease level Ø / Shed leaves Ø / Disease level, replicates 1-9 / Shed leaves, replicates 1-9: I-34/I-7 10 mg a.i./plant, fluopyram 20 mg a.i./plant; for Disease level Ø / Shed leaves Ø: mean of 9; for Disease level, replicates 1-9 / Shed leaves, replicates 1-9: single replicates; for Disease level and shed leaves: sum of the two Ø
Procedure: To control Botrytis cinerea (grey mould) on tomatoes, tomato plants which had been grown in peaty soil were treated with the compounds I-34 or I-7 alone or in combination with the fungicide fluopyram (drench application) 5 or 10 days before being inoculated with Botrvtis cinerea. [table] The inoculation with Botrytis cinerea was carried out at the stated points in time (5 or 10 days after drench application of compound I-34, I-7 and/or fluopyram). Inoculation density: 15 000 spores/ml, approx. 33 ml of spore suspension/plant. The disease level of the plants was evaluated 10 days after the inoculation with Botrytis cinerea.

[3] = test system: Triticum aestivum ‘Dekan’; assay: Root growth test of wheat under oxygen deficiency conditions in the nutrient solution; conditions: 0.5 mg a.i./plant; floating box, nutrient solution not aerated (oxygen deficiency stress); average maximum root length after 14 d
Procedure: To prepare a suitable solution of the preparation, I part by weight of formulated product is mixed with water to give the desired concentration.
(§3) Wheat kernels (Triticum aestivum ‘Dekan’) are sown in compost and grown under suitable climatic conditions in a floating box provided with the solution of the preparation. The nutrient solution of the floating box was not aerated (oxygen deficiency stress).
After the desired period of time, the maximum length of the root per wheat plant is measured, and the average root length per floating box and treatment is calculated.

[4] = test system: Triticum aestivum ‘Dekan’; assay: Leaf biomass test on wheat under oxygen deficiency conditions in the nutrient solution; conditions: 0.5 mg a.i./plant, floating box, nutrient solution not aerated (oxygen deficiency stress)
Source text: (§4) To prepare a suitable solution of the preparation, 1 part by weight of formulated product is mixed with water to give the desired concentration.
as §3, with “‘Dekan’) or tomato seeds (Solanum lycopersicum ‘Rentita’)” for “‘Dekan’)”
(§5) After the desired period of time, the leaf biomass per wheat or tomato plant is measured, and the average weight per floating box and treatment is calculated.

[5] = test system: Solanum lycopersicum ‘Rentita’; assay: Leaf biomass test on tomatoes under oxygen deficiency conditions in the nutrient solution; conditions: 1.0 mg a.i./plant, floating box, nutrient solution not aerated (oxygen deficiency stress)
Source text: as §4
as §3, with “‘Dekan’) or tomato seeds (Solanum lycopersicum ‘Rentita’)” for “‘Dekan’)”
as §5

SMILES	Root growth of tomatoes: Length in cm after 12 d [1]	Shoot length of tomatoes: Length in cm after 19 d [2]	Disease level Ø (Botrytis cinerea)	Shed leaves Ø (Botrytis cinerea)	Disease level, replicates 1-9 (Botrytis cinerea)	Shed leaves, replicates 1-9 (Botrytis cinerea)	Disease level and shed leaves (Botrytis cinerea)	also measured
CN(Cc1cnc(Cl)c(F)c1)C1=CC(=O)OC1 [Compound (I-8), 4-{[(6-chloro-5-fluoropyrid-3-yl)methyl](methyl)amino}furan-2(5H)-one]	7.43 cm	6.6 cm						
O=C1C=C(N(CCF)Cc2ccc(Cl)nc2)CO1 [Compound (I-6), 4-{[(6-chloropyrid-3-yl)methyl](2-fluoroethyl)amino}furan-2(5H)-one]	11.08 cm	7.33 cm						
CN(Cc1ccc(Cl)nc1)C1=CC(=O)CC1 [Compound (I-18), 3-{[(6-chloropyrid-3-yl)methyl](methyl)amino}cyclopent-2-en-1-one]	7.56 cm							
CC1OC(=O)C=C1N(C)Cc1ccc(Cl)nc1 (stereo not drawn) [Compound (I-25), 4-{[(6-chloropyrid-3-yl)methyl](methyl)amino}-5-methylfuran-2(5H)-one]	9.19 cm	6.8 cm						
O=C1C=C(N(Cc2ccc(Cl)nc2)C2CC2)CO1 [Compound (I-31), 4-{[(6-chloropyrid-3-yl)methyl](cyclopropyl)amino}furan-2(5H)-one]	11.16 cm	6.78 cm						
CN(Cc1ccc(Cl)nc1)C1=CC(=O)OC1 [Compound (I-34), 4-{[(6-chloropyrid-3-yl)methyl](methyl)amino}furan-2(5H)-one]	9.53 cm	6.75 cm	3	3	5 and 2 (4×) and 3 (2×) and 4 (2×)	3 (3×) and 0 and 4 (3×) and 5 and 2	61	
O=C(NCCc1ncc(C(F)(F)F)cc1Cl)c1ccccc1C(F)(F)F [Fluopyram, fluopyram, reference compound]			1	0	5 (3×) and 2 and 1 (3×) and 3 (2×)	0	11	Appearance of infected leaf tissue (symptoms of the disease) (Botrytis cinerea; 10 d post-inoculation with Botrytis cinerea, FIGS. 4-6, in words): remains dark and wet
O=C1C=C(N(Cc2ccc(Cl)nc2)CC(F)F)CO1 [Compound (I-7), 4-{[(6-chloropyrid-3-yl)methyl](2,2-difluoroethyl)amino}furan-2(5H)-one]	8.67 cm	7.15 cm	3	3	3 (6×) and 2 and 4 and 5	5 (3×) and 6 and 3 (2×) and 4 and 2 and 1	68	Root growth of wheat: Length in cm after 14 d [3]: 22.1 cm; Leaf biomass of wheat: Weight in g after 22 d [4]: 15.7 g; Leaf biomass of tomato: Weight in g after 21 d [5]: 19.4 g
O=C1C=C(N(CCF)Cc2cnc(Cl)c(Cl)c2)CO1 [Compound (I-14), 4-{[(5,6-dichloropyrid-3-yl)methyl](2-fluoroethyl)amino}furan-2(5H)-one]	6.97 cm							
